Laboratory results published in publication PMC7367873, “Dissecting the sequence determinants for dephosphorylation by the catalytic subunits of phosphatases PP1 and PP2A” (Nature Communications, 2020).

System: GFP-14-3-3β
Test: GFP-14-3-3β co-IP with LC-MS/MS, untreated GFP-14-3-3β versus GFP control (14-3-3 interactome)
Assay type: binding, human
Conditions: log2 difference; pairwise comparison untreated vs GFP, label-free quantification, 3 replicates each

Substance: PP1c: recombinant catalytic subunit of PP1
- Difference (log2), untreated vs GFP: 1.715
